According to PubChem BioAssay (NCI):
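How tested: cells in 96-well plates exposed to compound for 48 hours at five concentrations. At the GI50, growth is halved. TGI marks complete inhibition of growth.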

Experiments:
Test in all cases: growth of human tumour cells (NCI), 48 h
ACHN renal = system: ACHN renal
M14 melanoma = system: M14 melanoma
MCF7 breast = system: MCF7 breast
OVCAR-3 ovarian = system: OVCAR-3 ovarian
RXF 393 renal = system: RXF 393 renal
SN12C renal = system: SN12C renal
SNB-19 CNS = system: SNB-19 CNS
T-47D breast = system: T-47D breast
U251 CNS = system: U251 CNS
UACC-257 melanoma = system: UACC-257 melanoma

| SMILES | GI50 (ACHN renal) | TGI (ACHN renal) | GI50 (M14 melanoma) | TGI (M14 melanoma) | GI50 (MCF7 breast) | TGI (MCF7 breast) | GI50 (OVCAR-3 ovarian) | TGI (OVCAR-3 ovarian) | GI50 (RXF 393 renal) | TGI (RXF 393 renal) | GI50 (SN12C renal) | TGI (SN12C renal) | GI50 (SNB-19 CNS) | TGI (SNB-19 CNS) | GI50 (T-47D breast) | TGI (T-47D breast) | GI50 (U251 CNS) | TGI (U251 CNS) | GI50 (UACC-257 melanoma) | TGI (UACC-257 melanoma) |
| --- | --- | --- | --- | --- | --- | --- | --- | --- | --- | --- | --- | --- | --- | --- | --- | --- | --- | --- | --- | --- |
| O=C1C=Cc2ccccc2/C1=C/c1[nH]c(=O)[nH]c1O | 9.97 µM | > 100 µM | 4.42 µM | > 100 µM | 2.4 µM | 15.2 µM | 2.51 µM | 7.73 µM | 2.78 µM | 10.2 µM | 10.1 µM | > 100 µM | 3.49 µM | 16.6 µM | 2.5 µM | 25.6 µM | 5.39 µM | 35 µM | 2.93 µM | > 100 µM |
| O=C1OC(=O)C2C1C1(c3ccccc3)C(c3ccccc3)=C(c3ccccc3)C2(c2ccccc2)S1=O (stereo not drawn) | > 100 µM | > 100 µM | > 100 µM | > 100 µM | > 100 µM | > 100 µM | > 100 µM | > 100 µM | > 100 µM | > 100 µM | > 100 µM | > 100 µM | > 100 µM | > 100 µM | > 100 µM | > 100 µM | > 100 µM | > 100 µM | > 100 µM | > 100 µM |
| Cc1ccc2c(N)c(C(=O)N[C@H]3CCc4cc(N5CC6CCC(C5)N6)ccc4C3)sc2n1 | 0.158 µM | 2.01 µM | 0.307 µM | 1.82 µM | 0.283 µM | 2.43 µM | 0.547 µM | 2.63 µM | 0.217 µM | 0.686 µM | 0.263 µM | 1.8 µM | 0.325 µM | 2.49 µM | 0.497 µM | 3.55 µM | 0.311 µM | 2.15 µM | 0.501 µM | 2.84 µM |
| COC(=O)/C(=C\c1c(C)[nH]c2ccccc12)S(=O)(=O)c1ccccc1 | 5.52 µM | 18.5 µM | 4.4 µM | 20 µM | 2.81 µM | 12.5 µM | 2.7 µM | 7.56 µM | 3.63 µM | 31.9 µM | 2.55 µM | 10.3 µM | 7.59 µM | 22.1 µM | 3.21 µM | 16.6 µM | 3.42 µM | 12.6 µM | 6.97 µM | 20.9 µM |
| O=C1c2ccccc2-c2c1c1ccccc1c(=O)n2CCCN1CCOCC1 | 10.7 µM | 59.5 µM | 99.2 µM | > 100 µM | 9.31 µM | > 100 µM | 25 µM | > 100 µM | 6.21 µM | 24.3 µM | 21.3 µM | > 100 µM | 14.2 µM | 39.1 µM | 19.6 µM | 97.4 µM | 3.67 µM | 14.9 µM | > 100 µM | > 100 µM |
| O=[N+]([O-])/C=C/c1c[nH]c2ccccc12 | 17.1 µM | 32.3 µM | 2.35 µM | 6.43 µM | 6.02 µM | 38.4 µM | 15.4 µM | 33 µM | 19.5 µM | 35.1 µM | 17.8 µM | 37.1 µM | 18.4 µM | 35.4 µM | 15 µM | 37.7 µM | 12.8 µM | 26.7 µM | 16.5 µM | 30.6 µM |
| Nc1ccccc1C#C/C=C\C#Cc1ccc(Cl)cc1Cl | 20.9 µM | 41.7 µM | 14.7 µM | 34.4 µM | 3.52 µM | 39.7 µM | 5.19 µM | 17.9 µM | 14.3 µM | 40.7 µM | 14.4 µM | 30.5 µM |  |  | 18.9 µM | 78.5 µM | 15.3 µM | 34 µM | 18.3 µM | 40.9 µM |
| O=C(Nc1ccc(Cl)cc1)c1cc2ccccc2cc1O | 3.34 µM | > 100 µM |  |  | 1.9 µM | > 100 µM | 2.01 µM | 6.67 µM | 7.19 µM | > 100 µM | 2.46 µM | > 100 µM | 4.19 µM | > 100 µM | 1.11 µM | 9.49 µM | 2.54 µM | 29.5 µM | 3.25 µM | 7.91 µM |
| COc1ccc(-c2nc(-c3ccccc3)c(-c3ccccc3)n2C2CC2)cc1OC1CCCC1 | 58 µM | > 165 µM | 163 µM | > 165 µM | 67.6 µM | > 165 µM | 102 µM | > 165 µM |  |  | 128 µM | > 165 µM | > 165 µM | > 165 µM | 51.5 µM | > 165 µM | 30.2 µM | > 165 µM | > 165 µM | > 165 µM |
| S=C(N/N=C/c1ccccn1)Nc1ccccn1 | 1.56 µM | > 100 µM |  |  | 0.472 µM | > 100 µM | 0.327 µM | 3.14 µM | 0.485 µM | 4.15 µM | 1.95 µM | > 100 µM | 2.16 µM | > 100 µM | 1.93 µM | 90.7 µM | 1.07 µM | 24 µM | 0.903 µM | 5.85 µM |
| Cc1cc(S(=O)(=O)Nc2nnc(-c3ccccc3)c(-c3ccccc3)n2)c(SCc2ccccc2)cc1Cl | 17.6 µM | 32.6 µM | 20.7 µM | 42.1 µM | 24 µM | 54.2 µM | 17.9 µM | 34.8 µM | 19.8 µM | 39.2 µM |  |  | 25.7 µM | 52.7 µM | 23.8 µM | 52.3 µM | 21.7 µM | 50.1 µM | 28.5 µM | 70.1 µM |
| OCCCCC#Cc1ccccc1C#Cc1ccccc1C(F)(F)F | 11.4 µM | 23.5 µM |  |  | 10.6 µM | 31.6 µM | 2.3 µM | 9.28 µM | 3.39 µM | 12.5 µM | 12.2 µM | 26.5 µM | 18 µM | 34.3 µM | 19.8 µM | 47.2 µM | 4.63 µM | 17.9 µM | 17.7 µM | 31.9 µM |
